From patent US9012651B2, “TRPV3 modulators” (AbbVie Inc., priority 2011, dated 2015)
pIC50: −log10 of the molar value.

Target: human TRPV3 receptors (Homo sapiens (Human), UniProt Q8NET8)
Assay: Calcium flux assay (FLIPR TETRA), inhibition of the 2-APB response
Format: cell-based
Details: recombinant HEK293 cells stably expressing TRPV3, Calcium-4 dye, 2-APB at its EC80
Procedure: (i) In Vitro Methods-Calcium Flux Assays:
Experiments were conducted using the FLIPR^TETRA®. On the day prior to the experiment, recombinant HEK293 cells that stably express human and mouse TRPV3 were removed from tissue culture flasks and plated in growth medium at 20,000 cells/well into black-walled clear-bottom 384-well Biocoat™ poly-D-lysine assay plates (BD Biosciences, Bedford, Mass.) using a Multidrop® dispenser (ThermoScientific, Waltham, Mass.). […] Cells were incubated for 90-120 minutes in the dark. Compounds were dissolved in DMSO to prepare a 10 mM stock solution. The intensity of the fluorescence was captured and digitally transferred to an interfaced PC. The peak increase in fluorescence over baseline (relative fluorescence units) was calculated and expressed as the percentage of the maximal 2-APB (2-aminoethoxyldiphenyl borate) response (in the absence of compound).

human TRPV3 receptors, sequence (Q8NET8 whole entry): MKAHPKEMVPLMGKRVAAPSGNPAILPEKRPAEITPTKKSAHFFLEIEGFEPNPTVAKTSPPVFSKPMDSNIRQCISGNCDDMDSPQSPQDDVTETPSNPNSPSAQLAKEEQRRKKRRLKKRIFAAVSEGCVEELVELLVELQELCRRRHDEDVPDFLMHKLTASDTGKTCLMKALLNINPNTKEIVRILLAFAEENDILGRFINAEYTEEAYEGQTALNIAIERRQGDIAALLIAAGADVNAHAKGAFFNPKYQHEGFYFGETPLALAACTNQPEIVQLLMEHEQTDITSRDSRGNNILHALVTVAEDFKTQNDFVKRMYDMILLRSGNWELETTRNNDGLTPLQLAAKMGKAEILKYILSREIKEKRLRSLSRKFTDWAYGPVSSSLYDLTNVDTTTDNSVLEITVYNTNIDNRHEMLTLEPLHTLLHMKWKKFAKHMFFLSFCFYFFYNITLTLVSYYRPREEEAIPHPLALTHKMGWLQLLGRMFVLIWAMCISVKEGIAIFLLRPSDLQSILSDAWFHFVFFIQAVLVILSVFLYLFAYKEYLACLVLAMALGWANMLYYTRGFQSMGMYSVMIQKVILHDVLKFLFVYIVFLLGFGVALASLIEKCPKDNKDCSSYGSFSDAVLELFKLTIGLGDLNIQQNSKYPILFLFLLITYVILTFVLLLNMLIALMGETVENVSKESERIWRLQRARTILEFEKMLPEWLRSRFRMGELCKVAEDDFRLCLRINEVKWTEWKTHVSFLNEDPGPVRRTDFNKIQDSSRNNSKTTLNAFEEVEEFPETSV

| Structure (SMILES) | pIC50 |
| --- | --- |
| C[C@@H](O)[C@@H](CO)NCc1nc(-c2ccc(C(F)(F)F)nc2)ccc1F [Example 121, (2R,3R)-2-({[5-fluoro-6′-(trifluoromethyl)-2,3′-bipyridin-6-yl]methyl}amino)butane-1,3-diol] | 5.21 |
| CC(C)[C@H](CO)NCc1nc(-c2cnc(N(C)C)nc2)ccc1F [Example 261, (2R)-2-[({6-[2-(dimethylamino)pyrimidin-5-yl]-3-fluoropyridin-2-yl}methyl)amino]-3-methylbutan-1-ol] | 6.12 |
| OC[C@H](NCc1ccnc(-c2ccc(C(F)(F)F)cc2)n1)[C@@H](O)c1ccccc1 [Example 153, (1S,2S)-1-phenyl-2-[({2-[4-(trifluoromethyl)phenyl]pyrimidin-4-yl}methyl)amino]propane-1,3-diol] | 5.03 |
| OC[C@H](NCc1ccnc(-c2ccc(C(F)(F)F)cc2)n1)C1CCCCC1 [Example 146, (2R)-2-cyclohexyl-2-[({2-[4-(trifluoromethyl)phenyl]pyrimidin-4-yl}methyl)amino]ethanol] | 5.06 |
| O[C@@H]1CCCC[C@@H]1NCc1ccnc(-c2ccc(C(F)(F)F)cc2)n1 [Example 172, (1R,2S)-2-[({2-[4-(trifluoromethyl)phenyl]pyrimidin-4-yl}methyl)amino]cyclohexanol] | 5.31 |
| CC(C)[C@H](CO)NCc1nc(-c2cccc(OC(F)(F)F)c2)ccc1F [Example 18, (2R)-2-[({3-fluoro-6-[3-(trifluoromethoxy)phenyl]pyridin-2-yl}methyl)amino]-3-methylbutan-1-ol] | 5.95 |
| CC(C)[C@H](CO)NCc1nc(-c2cccc(-n3cccn3)c2)ccc1F [Example 260, (2R)-2-[({3-fluoro-6-[3-(1H-pyrazol-1-yl)phenyl]pyridin-2-yl}methyl)amino]-3-methylbutan-1-ol] | 6.52 |
| OC[C@@H]1[C@H]2CC[C@H](C2)[C@@H]1NCc1ccnc(-c2ccc(C(F)(F)F)cc2)n1 [Example 169, {(1S,2R,3S,4R)-3-[({2-[4-(trifluoromethyl)phenyl]pyrimidin-4-yl}methyl)amino]bicyclo[2.2.1]hept-2-yl]methanol] | < 4.70 |
| CC(C)[C@H](CO)NCc1cccc(C#Cc2ccc(S(F)(F)(F)(F)F)cc2)n1 [Example 263, (2R)-3-methyl-2-{[(6-{[4-(pentafluoro-λ^6-sulfanyl)phenyl]ethynyl}pyridin-2-yl)methyl]amino}butan-1-ol] | 6.64 |
| CC(C)[C@@H](NCc1nc(-c2ccc(C(F)(F)F)cc2)ccc1F)C(C)(C)O [Example 105, (3R)-3-[({3-fluoro-6-[4-(trifluoromethyl)phenyl]pyridin-2-yl}methyl)amino]-2,4-dimethylpentan-2-ol] | 5.56 |
| OCC[C@@H](NCc1ccnc(-c2ccc(C(F)(F)F)cc2)n1)c1ccccc1 [Example 162, (3R)-3-phenyl-3-[({2-[4-(trifluoromethyl)phenyl]pyrimidin-4-yl}methyl)amino]propan-1-ol] | < 4.70 |
| CC(C)[C@H](CO)NCc1ccc(F)c(-c2ccc(C(F)(F)F)nc2)n1 [Example 109, (2R)-2-({[3-fluoro-6′-(trifluoromethyl)-2,3′-bipyridin-6-yl]methyl}amino)-3-methylbutan-1-ol] | 5.44 |
| CC(C)[C@@H](NCc1nc(-c2ccc(C(F)(F)F)cc2)ccc1F)C(N)=O [Example 116, (R)-2-((3-fluoro-6-(4-(trifluoromethyl)phenyl)pyridin-2-yl)methylamino)-3-methylbutanamide] | < 4.70 |
| CC(C)[C@H](CO)NCc1nc(-c2ccc3ccn(C)c3c2)ccc1F [Example 64, (2R)-2-({[3-fluoro-6-(1-methyl-1H-indol-6-yl)pyridin-2-yl]methyl}amino)-3-methylbutan-1-ol] | 6.32 |
| CC(C)[C@H](CO)NCc1nc(-c2ccc(F)c(C#N)c2)ccc1F [Example 279, 2-fluoro-5-[5-fluoro-6-({[(2R)-1-hydroxy-3-methylbutan-2-yl]amino}methyl)pyridin-2-yl]benzonitrile] | 6.03 |
| CC(C)[C@H](CO)NCc1ccnc(-c2ccc(S(=O)(=O)C(F)(F)F)cc2)n1 [Example 207, (2R)-3-methyl-2-{[(2-{4-[(trifluoromethyl)sulfonyl]phenyl}pyrimidin-4-yl)methyl]amino}butan-1-ol] | 6.17 |
| CC(C)[C@H](CO)NCc1nc(-c2ccc3occc3c2)ccc1F [Example 256, (2R)-2-({[6-(1-benzofuran-5-yl)-3-fluoropyridin-2-yl]methyl}amino)-3-methylbutan-1-ol] | 6.38 |
| CC(C)[C@H](CO)NCc1nc(-c2ccoc2)ccc1F [Example 251, (2R)-2-({[3-fluoro-6-(furan-3-yl)pyridin-2-yl]methyl}amino)-3-methylbutan-1-ol] | 6.24 |
| OCC1(NCc2ccnc(-c3ccc(C(F)(F)F)cc3)n2)CCCCC1 [Example 134, {1-[({2-[4-(trifluoromethyl)phenyl]pyrimidin-4-yl}methyl)amino]cyclohexyl}methanol] | 4.96 |
| OC[C@@H](Cc1ccccc1)NCc1ccnc(-c2ccc(C(F)(F)F)cc2)n1 [Example 140, (2R)-3-phenyl-2-[({2-[4-(trifluoromethyl)phenyl]pyrimidin-4-yl}methyl)amino]propan-1-ol] | < 4.70 |
| C[C@@H](O)[C@@H](CO)NCc1ccnc(-c2ccc(C(F)(F)F)cn2)n1 [Example 198, (2R,3R)-2-[({2-[5-(trifluoromethyl)pyridin-2-yl]pyrimidin-4-yl}methyl)amino]butane-1,3-diol] | < 4.70 |
| CC(C)[C@H](CO)NCc1nc(-c2cncc(Cl)c2)ccc1F [Example 278, (2R)-2-{[(5′-chloro-5-fluoro-2,3′-bipyridin-6-yl)methyl]amino}-3-methylbutan-1-ol] | 5.57 |
| OC1(CNCc2ccnc(-c3ccc(C(F)(F)F)cc3)n2)CC1 [Example 176, 1-{[({2-[4-(trifluoromethyl)phenyl]pyrimidin-4-yl}methyl)amino]methyl}cyclopropanol] | < 4.70 |
| CC(C)[C@H](CO)NCc1nc(N2Cc3cccc(Cl)c3C2)ccc1F [Example 95, (2R)-2-({[6-(4-chloro-1,3-dihydro-2H-isoindol-2-yl)-3-fluoropyridin-2-yl]methyl}amino)-3-methylbutan-1-ol] | 6.47 |
| CCC(C)C(CO)NCc1ccnc(-c2ccc(C(F)(F)F)cc2)n1 (centres unmarked) [Example 143, 3-methyl-2-[({2-[4-(trifluoromethyl)phenyl]pyrimidin-4-yl}methyl)amino]pentan-1-ol] | 4.91 |

Further lines, results first:

| pIC50 | Structure (SMILES) |
| --- | --- |
| < 4.70 | C[C@@H](O)[C@H](CO)NCc1ccnc(-c2ccc(C(F)(F)F)cc2)n1 [Example 152, (2S,3R)-2-[({2-[4-(trifluoromethyl)phenyl]pyrimidin-4-yl}methyl)amino]butane-1,3-diol] |
| 6.29 | CC(C)(C)[C@H](CO)NCc1nc(-c2ccc(C(F)(F)F)nc2)ccc1F [Example 89, (2R)-2-({[5-fluoro-6′-(trifluoromethyl)-2,3′-bipyridin-6-yl]methyl}amino)-3,3-dimethylbutan-1-ol] |
| 6.46 | CC(C)[C@H](CO)NCc1nc(C2CCc3ccccc3C2)ccc1F (stereo partly drawn) [Example 217, (2R)-2-({[3-fluoro-6-(1,2,3,4-tetrahydronaphthalen-2-yl)pyridin-2-yl]methyl}amino)-3-methylbutan-1-ol] |
| 6.41 | CC(C)[C@H](CO)NCc1nc(-c2ccc(F)c(C(F)(F)F)c2)ccc1F [Example 281, (2R)-2-[({3-fluoro-6-[4-fluoro-3-(trifluoromethyl)phenyl]pyridin-2-yl}methyl)amino]-3-methylbutan-1-ol] |
| 6.60 | Cc1cc(-c2ccc(F)c(CN[C@@H](CO)C(C)C)n2)ccc1F [Example 280, (2R)-2-({[3-fluoro-6-(4-fluoro-3-methylphenyl)pyridin-2-yl]methyl}amino)-3-methylbutan-1-ol] |
| 6.42 | Cc1ccc(-c2ccc(F)c(CN[C@@H](CO)C(C)C)n2)s1 [Example 243, (2R)-2-({[3-fluoro-6-(5-methylthiophen-2-yl)pyridin-2-yl]methyl}amino)-3-methylbutan-1-ol] |
| 6.66 | CC(C)[C@H](CO)NCc1nc(N2CCC(C(F)(F)F)CC2)ccc1F [Example 66, (2R)-2-[({3-fluoro-6-[4-(trifluoromethyl)piperidin-1-yl]pyridin-2-yl}methyl)amino]-3-methylbutan-1-ol] |
| 6.15 | OC[C@H](NCc1nc(-c2ccc(C(F)(F)F)cc2)ccc1F)C1CCCCC1 [Example 84, (2R)-2-cyclohexyl-2-[({3-fluoro-6-[4-(trifluoromethyl)phenyl]pyridin-2-yl}methyl)amino]ethanol] |
| < 4.70 | C[C@@H](O)[C@H](NCc1nc(-c2ccc(C(F)(F)F)nc2)ccc1F)C(N)=O [Example 120, (2S,3R)-2-((5-fluoro-6′-(trifluoromethyl)-2,3′-bipyridin-6-yl)methylamino)-3-hydroxybutanamide] |
| 5.95 | CC(C)[C@H](CO)NCc1nc(-c2ccccc2F)ccc1F [Example 13, (2R)-2-({[3-fluoro-6-(2-fluorophenyl)pyridin-2-yl]methyl}amino)-3-methylbutan-1-ol] |
| < 4.70 | OC[C@@H](NCc1ccnc(-c2ccc(C(F)(F)F)cc2)n1)[C@H](O)c1ccccc1 [Example 154, (1R,2R)-1-phenyl-2-[({2-[4-(trifluoromethyl)phenyl]pyrimidin-4-yl}methyl)amino]propane-1,3-diol] |
| 5.91 | CC(C)[C@H](CO)NCc1nc(C2CCCCCC2)ccc1F [Example 206] |
| 6.30 | CC(C)[C@H](CO)NCc1nc(N2CCc3cc(Cl)ccc3C2)ccc1F [Example 101, (2R)-2-({[6-(6-chloro-3,4-dihydroisoquinolin-2(1H)-yl)-3-fluoropyridin-2-yl]methyl}amino)-3-methylbutan-1-ol] |
